Reference: ChEMBL document CHEMBL4359842 (J Med Chem, 2019)
Active and inactive are the calls of the source. The rule behind the calls is not given here.

Columns and labels:
[1] = tested on: Mus musculus; assay: In vivo inhibition of JNK in APPswe/PS1dE9 double mutant-transgenic mouse model assessed as reduction in Tau phosphorylation at Thr205 residue in cortex at 30 mg/kg, ip administered once daily for 12 weeks measured post-last dose by Western blot analysis; assay type: functional, organism-based
[2] = Ratio of drug level in APPswe/PS1dE9 double mutant-transgenic mouse brain to plasma at 30 mg/kg, ip administered as single dose measured after 8 hrs by LC-MS/MS analysis; assay type: ADME, organism-based; settings: read-out: BPR
[3] = tested on: Mus musculus; assay: Improvement in spatial memory impairment in APPswe/PS1dE9 double mutant-transgenic mouse model assessed as decrease in escape latency at 15 to 30 mg/kg, ip administered once daily for 12 weeks measured 24 hrs after training trial by morris water maze test; assay type: functional, organism-based
[4] = Plasma concentration in APPswe/PS1dE9 double mutant-transgenic mouse at 30 mg/kg, ip administered as single dose measured after 2 hrs by LC-MS/MS analysis; assay type: ADME, organism-based
[5] = Mean residence time in APPswe/PS1dE9 double mutant-transgenic mouse at 30 mg/kg, ip administered as single dose by LC-MS/MS analysis; assay type: ADME, organism-based; settings: in vivo
[6] = Drug level in APPswe/PS1dE9 double mutant-transgenic mouse brain at 30 mg/kg, ip administered as single dose measured after 2 hrs by LC-MS/MS analysis; assay type: ADME, organism-based; settings: read-out: Drug uptake
[7] = tested on: Mus musculus; assay: Effect on acquisition latency time in APPswe/PS1dE9 double mutant-transgenic mouse model at 15 to 30 mg/kg, ip administered once daily for 12 weeks measured post-last dose by step-through passive avoidance test; assay type: ADME, organism-based; settings: in vivo, 2016 h
[8] = tested on: SH-SY5Y; assay: Neuroprotective activity against amyloid beta (25 to 35 residues)-induced cell death in human SH-SY5Y cells assessed as increase in cell viability at 1 to 10 uM preincubated for 1 hr followed by amyloid beta (25 to 35 residues) addition and measured after 72 hrs by MTT assay; assay type: functional, cell-based
[9] = AUC in APPswe/PS1dE9 double mutant-transgenic mouse at 3 mg/kg, iv administered as single dose by LC-MS/MS analysis; assay type: ADME, organism-based; settings: in vivo
[10] = Terminal half life in APPswe/PS1dE9 double mutant-transgenic mouse at 3 mg/kg, iv administered as single dose by LC-MS/MS analysis; assay type: ADME, organism-based; settings: in vivo, read-out: beta t1/2 (converted)
[11] = tested on: SH-SY5Y; assay: Effect on cell proliferation in human SH-SY5Y cells at 1 to 10 uM measured after 1 hr by MTT assay; assay type: ADME, cell-based
[12] = tested on: Mus musculus; assay: Improvement in spatial memory impairment in ip dosed APPswe/PS1dE9 double mutant-transgenic mouse model assessed as decrease in number of diffused plaque in cortex administered once daily for 12 weeks measured post-last dose by thioflavin S staining-based fluorescence microscopic analysis; assay type: functional, organism-based
[13] = target: Mitogen-activated protein kinase 8 (Homo sapiens, UniProt P45983); assay: Inhibition of human JNK1alpha1 using ATF2 as substrate measured after 40 mins in presence of [gamma33P]ATP by scintillation counting analysis
[14] = Clearance in APPswe/PS1dE9 double mutant-transgenic mouse at 30 mg/kg, ip administered as single dose by LC-MS/MS analysis; assay type: ADME, organism-based; settings: in vivo
[15] = Drug level in APPswe/PS1dE9 double mutant-transgenic mouse brain at 30 mg/kg, ip administered as single dose measured after 0.5 hrs by LC-MS/MS analysis; assay type: ADME, organism-based; settings: read-out: Drug uptake
[16] = Cmax in APPswe/PS1dE9 double mutant-transgenic mouse at 30 mg/kg, ip administered as single dose by LC-MS/MS analysis; assay type: ADME, organism-based; design: dose 30 mg/kg, route intraperitoneal; settings: in vivo
[17] = Clearance in APPswe/PS1dE9 double mutant-transgenic mouse at 3 mg/kg, iv administered as single dose by LC-MS/MS analysis; assay type: ADME, organism-based; settings: in vivo
[18] = Ratio of drug level in APPswe/PS1dE9 double mutant-transgenic mouse brain to plasma at 30 mg/kg, ip administered as single dose measured after 0.5 hrs by LC-MS/MS analysis; assay type: ADME, organism-based; settings: read-out: BPR
[19] = tested on: Mus musculus; assay: In vivo inhibition of JNK in APPswe/PS1dE9 double mutant-transgenic mouse model assessed as reduction in Tau phosphorylation at Ser235 residue in cortex at 30 mg/kg, ip administered once daily for 12 weeks measured post-last dose by Western blot analysis; assay type: functional, organism-based
[20] = Plasma concentration in APPswe/PS1dE9 double mutant-transgenic mouse at 30 mg/kg, ip administered as single dose measured after 8 hrs by LC-MS/MS analysis; assay type: ADME, organism-based
[21] = Tmax in APPswe/PS1dE9 double mutant-transgenic mouse at 30 mg/kg, ip administered as single dose by LC-MS/MS analysis; assay type: ADME, organism-based; settings: in vivo
[22] = tested on: Mus musculus; assay: In vivo inhibition of JNK in APPswe/PS1dE9 double mutant-transgenic mouse model assessed as reduction in Tau phosphorylation at Ser235 residue in hippocampus at 30 mg/kg, ip administered once daily for 12 weeks measured post-last dose by Western blot analysis; assay type: functional, organism-based
[23] = Bioavailability in APPswe/PS1dE9 double mutant-transgenic mouse at 30 mg/kg, ip administered as single dose by LC-MS/MS analysis; assay type: ADME, organism-based; settings: in vivo
[24] = tested on: Mus musculus; assay: Improvement in spatial memory impairment in ip dosed APPswe/PS1dE9 double mutant-transgenic mouse model assessed as decrease in area occupied by diffused plaque in cortex administered once daily for 12 weeks measured post-last dose by thioflavin S staining-based fluorescence microscopic analysis; assay type: functional, organism-based
[25] = tested on: Mus musculus; assay: Improvement in spatial memory impairment in ip dosed APPswe/PS1dE9 double mutant-transgenic mouse model assessed as decrease in area occupied by diffused plaque in hippocampus administered once daily for 12 weeks measured post-last dose by thioflavin S staining-based fluorescence microscopic analysis; assay type: functional, organism-based
[26] = tested on: Mus musculus; assay: Improvement in spatial memory impairment in ip dosed APPswe/PS1dE9 double mutant-transgenic mouse model assessed as decrease in area occupied by fibrillar plaque in cortex administered once daily for 12 weeks measured post-last dose by thioflavin S staining-based fluorescence microscopic analysis; assay type: functional, organism-based
[27] = target: Mitogen-activated protein kinase 10 (Homo sapiens, UniProt P53779); assay: Inhibition of recombinant human full-length JNK3 using ATF2 as substrate measured after 40 mins in presence of [gamma33P]ATP by scintillation counting analysis
[28] = Primary phase half life in APPswe/PS1dE9 double mutant-transgenic mouse at 30 mg/kg, ip administered as single dose by LC-MS/MS analysis; assay type: ADME, organism-based; settings: in vivo, read-out: alphat1/2 (converted)
[29] = tested on: Mus musculus; assay: In vivo inhibition of […] phosphorylation in cortex of APPswe/PS1dE9 double mutant-transgenic mouse model at 30 mg/kg, ip administered once daily for 12 weeks measured post-last dose by Western blot analysis; assay type: functional, organism-based
[30] = tested on: Mus musculus; assay: Improvement in spatial memory impairment in APPswe/PS1dE9 double mutant-transgenic mouse model assessed as increase in retention latency time at 15 to 30 mg/kg, ip administered once daily for 12 weeks measured post-last dose by step-through passive avoidance test; assay type: functional, organism-based
[31] = tested on: Mus musculus; assay: In vivo inhibition of JNK in APPswe/PS1dE9 double mutant-transgenic mouse model assessed as reduction in APP phosphorylation at Thr668 residue in cortex at 30 mg/kg, ip administered once daily for 12 weeks measured post-last dose by Western blot analysis; assay type: functional, organism-based

Sequence of Mitogen-activated protein kinase 10 (P53779 whole entry): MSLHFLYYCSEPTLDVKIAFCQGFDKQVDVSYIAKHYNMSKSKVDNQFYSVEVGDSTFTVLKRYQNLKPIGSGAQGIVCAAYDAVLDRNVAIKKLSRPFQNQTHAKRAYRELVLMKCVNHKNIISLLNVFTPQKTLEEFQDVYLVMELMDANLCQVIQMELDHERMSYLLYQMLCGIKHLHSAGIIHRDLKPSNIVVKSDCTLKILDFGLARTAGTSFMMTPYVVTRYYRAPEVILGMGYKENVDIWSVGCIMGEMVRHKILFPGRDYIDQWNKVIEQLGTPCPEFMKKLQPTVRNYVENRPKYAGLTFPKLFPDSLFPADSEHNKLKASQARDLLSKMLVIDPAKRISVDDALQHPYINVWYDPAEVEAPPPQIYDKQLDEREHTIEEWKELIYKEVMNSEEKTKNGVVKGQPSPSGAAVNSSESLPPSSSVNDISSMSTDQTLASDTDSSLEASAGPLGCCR
Sequence of Mitogen-activated protein kinase 8 (P45983 whole entry): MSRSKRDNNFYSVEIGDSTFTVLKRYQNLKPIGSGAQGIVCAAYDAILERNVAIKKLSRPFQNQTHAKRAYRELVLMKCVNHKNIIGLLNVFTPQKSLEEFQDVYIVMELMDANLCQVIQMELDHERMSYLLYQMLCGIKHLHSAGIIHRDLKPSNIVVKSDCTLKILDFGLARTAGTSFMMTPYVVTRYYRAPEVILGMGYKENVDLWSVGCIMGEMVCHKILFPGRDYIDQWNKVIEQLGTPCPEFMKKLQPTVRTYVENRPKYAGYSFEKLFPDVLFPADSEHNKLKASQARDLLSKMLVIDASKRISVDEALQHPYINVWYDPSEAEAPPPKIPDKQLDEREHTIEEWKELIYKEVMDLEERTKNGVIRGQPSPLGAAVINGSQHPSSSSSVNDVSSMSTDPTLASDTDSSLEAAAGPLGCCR

With O=C1N/C(=N/c2ccccc2Cl)S/C1=C1\C(=O)Nc2ccc(F)cc21 the inhibition [1] was “Active”, the Kp at 8 h [2] was 0.4 and the Activity [3] was “Active”. For the same molecule, the concentration at 2 h [4] was 1200 ng/mL, the MRT [5] was 2.78 h and the concentration at 2 h [6] was 158 ng/g. For the same molecule, the Activity [7] was “Non-Toxic”, the Activity [8] was “Active” and the AUC [9] was 2120 ng·h/mL. The half-life [10] was 8.83 h, the Activity [11] was “Non-Toxic” and the Activity [12] was “Dose-dependent effect”. The IC50 [13] was > 100000 nM, the CL/F [14] was 26.5 mL/min/kg and the concentration at 0.5 h [15] was 51.4 ng/g. For the same molecule, the Cmax [16] was 19200 ng/mL, the clearance [17] was 24.2 mL/min/kg and the Kp at 0.5 h [18] was 0.0024. For the same molecule, the inhibition [19] was “Active”, the concentration at 8 h [20] was 78.1 ng/mL and the Tmax [21] was 0.4 h. The inhibition [22] was “Active”, the bioavailability [23] was 90.5% and the Activity [24] was “Dose-dependent effect”. The Activity [25] was “Dose-dependent effect”, the Activity [26] was “Dose-dependent effect” and the IC50 [27] was 40 nM. For the same molecule, the half-life [28] was 0.34 h, the inhibition [29] was “Active” and the Activity [30] was “Active”. The inhibition [31] was “Active”.
